This note sets out measurements from patent US20260240762A1, “COMPOUND AND FORMULATION FOR SYSTEMIC THERAPY BY ORAL TRANSMUCOSAL ADMINISTRATION” (CUROVIR AB, priority 2023, published 2026).

pIC50: −log10 of the molar value.

Common to all, as to assay type: biochemical
One assay has as its target PI3KA (p110a/p85a) (Homo sapiens, UniProt P42336). As to the kind of experiment: PI3 kinase inhibition, HTRF assay. An excerpt:
(§1) Inhibition of PI3 kinases was studied using the HTRF (homogeneous time-resolved fluorescence) assay which is a universal method for identifying and characterizing the phosphotransferase activity induced by any ATP/ADP dependent target. The formation of ADP was detected by a specific monoclonal antibody labeled with Eu^3+ cryptate; the amount of ADP formed directly correlates with the amount of phosphorylated substrate in kinase assays.

The next assay concerns the target PI3K (p120g) (Homo sapiens, UniProt P48736). As to the kind of experiment: PI3 kinase inhibition, HTRF assay. Conditions: not tested at concentration higher than 1 μM.
Source text: as §1
(Time-resolved FRET reads energy transfer from a long-lived donor to a nearby acceptor.)

Another assay deals with PI3KB (p110b/p85a) (Homo sapiens, UniProt P42338). As to the kind of experiment: PI3 kinase inhibition, HTRF assay.
Chain of PI3KB (p110b/p85a) (P42338 whole entry): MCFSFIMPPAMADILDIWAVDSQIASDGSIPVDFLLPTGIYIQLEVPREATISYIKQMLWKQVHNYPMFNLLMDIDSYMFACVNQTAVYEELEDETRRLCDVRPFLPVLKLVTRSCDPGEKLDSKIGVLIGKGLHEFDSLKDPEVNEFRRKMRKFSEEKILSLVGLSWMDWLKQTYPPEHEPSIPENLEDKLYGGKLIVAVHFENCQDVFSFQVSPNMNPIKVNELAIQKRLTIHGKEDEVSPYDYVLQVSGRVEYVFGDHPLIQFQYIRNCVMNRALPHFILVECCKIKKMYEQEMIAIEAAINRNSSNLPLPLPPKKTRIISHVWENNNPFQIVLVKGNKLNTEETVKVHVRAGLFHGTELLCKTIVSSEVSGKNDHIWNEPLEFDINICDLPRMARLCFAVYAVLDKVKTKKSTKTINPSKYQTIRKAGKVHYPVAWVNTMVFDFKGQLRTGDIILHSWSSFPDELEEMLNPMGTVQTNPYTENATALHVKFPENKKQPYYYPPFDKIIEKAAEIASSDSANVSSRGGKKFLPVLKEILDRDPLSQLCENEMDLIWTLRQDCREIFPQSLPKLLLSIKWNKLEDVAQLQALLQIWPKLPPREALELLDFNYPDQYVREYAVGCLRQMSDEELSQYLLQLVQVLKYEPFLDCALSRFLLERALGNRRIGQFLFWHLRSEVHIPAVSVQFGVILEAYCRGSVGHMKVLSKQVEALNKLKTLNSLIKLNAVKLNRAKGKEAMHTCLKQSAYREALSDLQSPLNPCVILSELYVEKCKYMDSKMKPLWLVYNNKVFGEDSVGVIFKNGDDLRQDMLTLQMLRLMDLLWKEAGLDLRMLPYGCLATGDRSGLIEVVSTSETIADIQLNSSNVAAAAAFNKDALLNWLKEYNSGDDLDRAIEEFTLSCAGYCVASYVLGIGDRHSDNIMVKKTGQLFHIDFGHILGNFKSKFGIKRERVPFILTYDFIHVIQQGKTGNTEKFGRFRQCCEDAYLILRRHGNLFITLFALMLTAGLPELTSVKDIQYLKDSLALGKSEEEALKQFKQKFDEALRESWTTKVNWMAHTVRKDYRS
Chain of PI3KB (p110b/p85a) (P27986 whole entry partner): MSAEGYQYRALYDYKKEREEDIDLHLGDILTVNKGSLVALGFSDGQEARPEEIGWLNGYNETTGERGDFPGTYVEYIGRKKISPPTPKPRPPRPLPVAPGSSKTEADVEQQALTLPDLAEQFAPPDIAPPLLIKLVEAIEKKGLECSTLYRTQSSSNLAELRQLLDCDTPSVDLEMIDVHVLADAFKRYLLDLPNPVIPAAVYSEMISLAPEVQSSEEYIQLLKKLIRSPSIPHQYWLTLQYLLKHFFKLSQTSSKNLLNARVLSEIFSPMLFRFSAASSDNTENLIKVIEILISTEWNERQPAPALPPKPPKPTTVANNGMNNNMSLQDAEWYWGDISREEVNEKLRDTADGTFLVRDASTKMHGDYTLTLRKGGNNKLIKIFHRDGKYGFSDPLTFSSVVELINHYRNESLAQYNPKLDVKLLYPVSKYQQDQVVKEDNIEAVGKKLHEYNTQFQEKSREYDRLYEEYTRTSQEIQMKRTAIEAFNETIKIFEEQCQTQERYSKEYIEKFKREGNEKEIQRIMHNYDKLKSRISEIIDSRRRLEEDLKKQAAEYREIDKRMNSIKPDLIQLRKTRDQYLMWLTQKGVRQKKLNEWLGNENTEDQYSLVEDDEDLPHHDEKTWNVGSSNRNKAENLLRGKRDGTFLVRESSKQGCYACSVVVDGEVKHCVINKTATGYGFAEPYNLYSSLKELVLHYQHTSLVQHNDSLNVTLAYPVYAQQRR
Source text: as §1

In a further assay the target is PI4KA (Homo sapiens, UniProt P42356). As to the kind of experiment: PI4 kinase inhibition, ADP-Glo Kinase assay. The settings on record: 60 min, 10 μM ATP. The protocol:
(§2) Inhibition of PI4 kinases was performed with the ADP-Glo™ Kinase assay which measures the ADP formed from a kinase reaction, where ADP is converted into ATP and then converted into light by Ultra-Glo™ Luciferase. Reactions were carried out for 60 min at 10 μM ATP. The luminescent signal produced in reaction is proportional to the kinase activity.
(ADP-Glo turns the ADP formed in a reaction into a luminescent signal.)

A further assay has as its target PI4KB (Homo sapiens, UniProt Q9UBF8). Nature of the assay: PI4 kinase inhibition, ADP-Glo Kinase assay. Conditions: 60 min, 10 μM ATP. The protocol: as §2
The target of another assay is PI4K2B (Homo sapiens, UniProt Q8TCG2). As to the kind of experiment: PI4 kinase inhibition, ADP-Glo Kinase assay. Conditions: 60 min, 10 μM ATP, not tested at concentration higher than 10 μM. The protocol: as §2
Chain of PI4K2B (Q8TCG2 whole entry, species assumed): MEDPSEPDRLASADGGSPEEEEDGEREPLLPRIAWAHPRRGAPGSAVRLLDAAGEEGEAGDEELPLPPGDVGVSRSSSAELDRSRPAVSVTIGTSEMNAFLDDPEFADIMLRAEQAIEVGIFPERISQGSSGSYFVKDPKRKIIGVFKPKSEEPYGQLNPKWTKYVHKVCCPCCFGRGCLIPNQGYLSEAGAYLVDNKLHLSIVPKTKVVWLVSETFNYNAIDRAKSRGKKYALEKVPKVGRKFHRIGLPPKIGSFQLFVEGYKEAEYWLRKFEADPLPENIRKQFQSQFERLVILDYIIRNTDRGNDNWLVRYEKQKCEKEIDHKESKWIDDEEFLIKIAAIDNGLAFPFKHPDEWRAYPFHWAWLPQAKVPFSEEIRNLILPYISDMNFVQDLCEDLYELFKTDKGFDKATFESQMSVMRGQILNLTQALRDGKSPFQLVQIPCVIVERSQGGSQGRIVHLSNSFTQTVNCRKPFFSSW
For the next assay, the target named is PI4K2A (Homo sapiens, UniProt Q9BTU6). Nature of the assay: PI4 kinase inhibition, ADP-Glo Kinase assay. The settings on record: 60 min, 10 μM ATP, not tested at concentration higher than 10 μM. The protocol: as §2
Chain of PI4K2A (Q9BTU6 whole entry, species assumed): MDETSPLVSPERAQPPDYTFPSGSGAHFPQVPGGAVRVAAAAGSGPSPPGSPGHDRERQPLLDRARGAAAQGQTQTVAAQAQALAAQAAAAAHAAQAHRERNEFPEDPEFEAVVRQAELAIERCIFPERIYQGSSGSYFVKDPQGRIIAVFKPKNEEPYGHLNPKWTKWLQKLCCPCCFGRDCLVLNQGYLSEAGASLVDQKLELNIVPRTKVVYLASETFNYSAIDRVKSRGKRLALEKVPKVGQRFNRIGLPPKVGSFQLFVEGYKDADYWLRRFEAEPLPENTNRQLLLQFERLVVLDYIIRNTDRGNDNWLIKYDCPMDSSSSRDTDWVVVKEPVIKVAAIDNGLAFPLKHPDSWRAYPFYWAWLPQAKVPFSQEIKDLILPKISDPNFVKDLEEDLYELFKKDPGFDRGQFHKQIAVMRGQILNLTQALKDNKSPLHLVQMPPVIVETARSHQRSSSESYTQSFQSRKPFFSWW

Chain of PI4KB (Q9UBF8 whole entry, species assumed): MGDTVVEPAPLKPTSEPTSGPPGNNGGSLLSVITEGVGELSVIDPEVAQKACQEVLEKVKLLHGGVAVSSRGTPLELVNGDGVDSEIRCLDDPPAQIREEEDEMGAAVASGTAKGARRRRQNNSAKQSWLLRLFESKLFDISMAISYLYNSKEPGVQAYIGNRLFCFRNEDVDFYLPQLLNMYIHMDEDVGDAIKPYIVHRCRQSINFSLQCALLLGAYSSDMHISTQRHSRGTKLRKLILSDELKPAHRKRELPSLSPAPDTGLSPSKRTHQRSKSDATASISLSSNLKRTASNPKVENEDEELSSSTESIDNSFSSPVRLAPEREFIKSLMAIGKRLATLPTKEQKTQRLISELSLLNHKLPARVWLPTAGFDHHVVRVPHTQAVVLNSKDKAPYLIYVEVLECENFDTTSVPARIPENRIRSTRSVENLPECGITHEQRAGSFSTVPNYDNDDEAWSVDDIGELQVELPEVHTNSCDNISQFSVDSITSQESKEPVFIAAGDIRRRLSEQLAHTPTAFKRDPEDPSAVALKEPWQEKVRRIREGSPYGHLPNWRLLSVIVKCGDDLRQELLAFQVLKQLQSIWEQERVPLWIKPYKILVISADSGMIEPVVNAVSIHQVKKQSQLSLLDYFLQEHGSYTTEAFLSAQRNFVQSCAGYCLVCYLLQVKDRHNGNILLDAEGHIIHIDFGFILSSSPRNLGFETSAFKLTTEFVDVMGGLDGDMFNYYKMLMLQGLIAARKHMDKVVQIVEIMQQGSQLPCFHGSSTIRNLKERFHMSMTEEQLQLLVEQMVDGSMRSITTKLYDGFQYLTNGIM
Chain of PI3K (p120g) (P48736 whole entry): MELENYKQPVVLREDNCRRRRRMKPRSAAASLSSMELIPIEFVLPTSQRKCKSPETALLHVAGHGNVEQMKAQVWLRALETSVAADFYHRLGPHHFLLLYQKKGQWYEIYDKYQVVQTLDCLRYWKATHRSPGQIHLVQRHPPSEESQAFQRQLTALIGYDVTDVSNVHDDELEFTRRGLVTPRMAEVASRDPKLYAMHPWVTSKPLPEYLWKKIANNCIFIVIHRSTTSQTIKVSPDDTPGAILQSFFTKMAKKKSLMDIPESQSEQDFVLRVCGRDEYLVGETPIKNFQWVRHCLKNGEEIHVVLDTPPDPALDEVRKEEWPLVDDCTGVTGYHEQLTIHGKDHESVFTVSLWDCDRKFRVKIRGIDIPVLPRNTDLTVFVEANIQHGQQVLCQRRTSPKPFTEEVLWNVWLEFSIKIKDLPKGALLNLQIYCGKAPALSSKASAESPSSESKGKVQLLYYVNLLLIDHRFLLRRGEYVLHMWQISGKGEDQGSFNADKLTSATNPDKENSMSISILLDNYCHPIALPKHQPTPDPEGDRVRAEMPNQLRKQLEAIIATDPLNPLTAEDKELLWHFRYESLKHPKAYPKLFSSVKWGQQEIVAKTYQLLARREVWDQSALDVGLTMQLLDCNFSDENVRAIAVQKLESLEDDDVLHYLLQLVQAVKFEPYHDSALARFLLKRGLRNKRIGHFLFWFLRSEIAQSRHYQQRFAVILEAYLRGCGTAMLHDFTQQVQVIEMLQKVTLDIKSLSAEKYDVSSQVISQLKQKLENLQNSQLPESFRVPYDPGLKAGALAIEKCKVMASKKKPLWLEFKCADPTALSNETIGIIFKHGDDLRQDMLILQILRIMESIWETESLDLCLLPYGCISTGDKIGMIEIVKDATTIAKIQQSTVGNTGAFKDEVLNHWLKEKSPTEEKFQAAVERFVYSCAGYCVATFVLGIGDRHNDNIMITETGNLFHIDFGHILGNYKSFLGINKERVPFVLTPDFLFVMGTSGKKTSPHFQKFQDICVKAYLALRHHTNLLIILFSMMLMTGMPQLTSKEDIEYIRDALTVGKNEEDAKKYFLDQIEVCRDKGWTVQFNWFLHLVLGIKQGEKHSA

Consider `Cc1cc(CNc2cc(C)nc3c(-c4ccc5c(c4)c(C)nn5C)c(C)nn23)ccn1` [3-(1,3-dimethyl-1H-indazol-5-yl)-2,5-dimethyl-N-[(2-methylpyridin-4-yl)methyl]pyrazolo[1,5-a]pyrimidin-7-amine], for which the pIC50 on PI3KA (p110a/p85a) was 5.47; on PI3K (p120g), under 6.00; against PI3KB (p110b/p85a), 5.27; on PI4KA it was 5.96; against PI4KB, 9.22; against PI4K2B, under 5.00. Besides, at PI4K2A, the pIC50 is under 5.00.

A word on the pIC50: it is the negative decadic logarithm of the IC50, by convention in mol/L. Low values mean a large IC50, high ones a small IC50.
